Test results from paper PMC3579312 (Journal of Medicinal Chemistry, 2013).
Entries after “also recorded” stand apart in the source; their conditions may differ.

How the values were obtained:
[1] = tested on: Trypanosoma brucei brucei bloodstream-form (strain 427); test: Trypanocidal activity, Alamar Blue viability, 72 h; format: cell-based; details: for Selectivity Index: HeLa EC50 versus T. brucei EC50; for combined trypanocidal action of 22s with nifurtimox: Figure 4
[2] = tested on: 22s-resistant T. brucei; test: Trypanocidal activity against cloned 22s-resistant cell line; format: cell-based, Trypanosoma brucei; details: 22s in 22s-resistant cells versus nifurtimox in wild-type
[3] = tested on: human African trypanosomiasis; details: cited from earlier work
[4] = tested on: nifurtimox-resistant T. brucei; test: Trypanocidal activity against cloned nifurtimox-resistant cell line; format: cell-based, Trypanosoma brucei
[5] = tested on: Chagas’ disease; details: patients with Chagas’ disease; cited from earlier work

| SMILES | Selectivity Index [1] | other results |
| --- | --- | --- |
| CCOC(=O)c1cc(CC)sc1NC(=O)c1ccc([N+](=O)[O-])o1 [Compound 12a, Ethyl 5-Ethyl-2-(5-nitrofuran-2-carboxamido)thiophene-3-carboxylate] | >640 | – |
| CCCCc1cc(C(=O)OCC)c(NC(=O)c2ccc([N+](=O)[O-])o2)s1 [Compound 12b] | >160 | – |
| CCCCOC(=O)c1cc(CC)sc1NC(=O)c1ccc([N+](=O)[O-])o1 [Compound 12d] | >625 | – |
| CCNC(=O)c1cc(CC)sc1NC(=O)c1ccc([N+](=O)[O-])o1 [Compound 12e] | >136 | – |
| CCCCNC(=O)c1cc(CC)sc1NC(=O)c1ccc([N+](=O)[O-])o1 [Compound 12f] | >60 | – |
| CCc1cc(C(N)=O)c(NC(=O)c2ccc([N+](=O)[O-])o2)s1 [Compound 12g, N-(3-Carbamoyl-5-ethylthiophen-2-yl)-5-nitrofuran-2-carboxamide] | >1155 | – |
| CCc1cc(C(=O)NCCO)c(NC(=O)c2ccc([N+](=O)[O-])o2)s1 [Compound 12h] | >253 | – |
| O=C(Nc1cccs1)c1ccc([N+](=O)[O-])o1 [Compound 12j] | >322 | – |
| CCOC(=O)c1ccsc1NC(=O)c1ccc([N+](=O)[O-])o1 [Compound 12k] | >278 | – |
| CCc1cc(C(N)=O)c(N)s1 [Compound 13g] | – | activity against T. brucei (in words) [1]: inactive |
| CCOC(=O)c1cc(CC)sc1NC(=O)c1ccco1 [Compound 18a] | – | activity against T. brucei (in words) [1]: no activity |
| COC(=O)c1ccc([N+](=O)[O-])o1 [Compound 19] | – | activity against T. brucei (in words) [1]: inactive |
| CCc1cc(C(N)=O)c(NC(=O)c2cccc([N+](=O)[O-])c2)s1 [Compound 20b] | >8 | – |
| O=C(Nc1ccccc1)c1ccc([N+](=O)[O-])o1 [Compound 22b] | >710 | – |
| O=C(Nc1cccc(Br)c1)c1ccc([N+](=O)[O-])o1 [Compound 22f] | >192 | – |
| COc1cccc(NC(=O)c2ccc([N+](=O)[O-])o2)c1 [Compound 22g] | >345 | – |
| O=C(Nc1ccc(C(F)(F)F)cc1)c1ccc([N+](=O)[O-])o1 [Compound 22h, 5-Nitro-N-(4-(trifluoromethyl)phenyl)furan-2-carboxamide] | >158 | – |
| O=C(Nc1ccc(Cl)cc1)c1ccc([N+](=O)[O-])o1 [Compound 22i] | >48 | – |
| COC(=O)c1ccc(NC(=O)c2ccc([N+](=O)[O-])o2)cc1 [Compound 22j] | >29 | – |
| COc1ccc(NC(=O)c2ccc([N+](=O)[O-])o2)cc1 [Compound 22k] | >261 | – |
| O=C(NCc1cccc(C(F)(F)F)c1)c1ccc([N+](=O)[O-])o1 [Compound 22l, 5-nitro-N-(3-(trifluoromethyl)benzyl)furan-2-carboxamide] | >1149 | – |
| COc1cc(NC(=O)c2ccc([N+](=O)[O-])o2)cc(C(F)(F)F)c1 [Compound 22m] | >752 | – |
| O=C(Nc1cc(C(F)(F)F)cc(C(F)(F)F)c1)c1ccc([N+](=O)[O-])o1 [Compound 22n] | >78 | – |
| O=C(Nc1ccc(O)cc1)c1ccc([N+](=O)[O-])o1 [Compound 22p] | >50 | – |
| O=C(Nc1ccc(O)c(C(F)(F)F)c1)c1ccc([N+](=O)[O-])o1 [Compound 22r] | >9 | – |
| C=CCOc1ccc(NC(=O)c2ccc([N+](=O)[O-])o2)cc1C(F)(F)F [Compound 22s, N-(4-(Allyloxy)-3-(trifluoromethyl)phenyl)-5-nitrofuran-2-carboxamide] | >8330 | combined trypanocidal action of 22s with nifurtimox ([1]; nifurtimox <700 nM, EC50 of 22s): synergy can be observed; also recorded: synergistic relationship; combined trypanocidal action of 22s with nifurtimox ([1]; nifurtimox above 700 nM): distinct lack of synergy; potency in 22s-resistant cells relative to nifurtimox in wild-type T. brucei [2]: ~70 times |
| C=CCOc1ccc(N(CC=C)C(=O)c2ccc([N+](=O)[O-])o2)cc1C(F)(F)F [Compound 22t] | >9 | – |
| COc1ccc(NC(=O)c2ccc([N+](=O)[O-])o2)cc1C [Compound 22v] | >525 | – |
| Nc1nc(N)nc(Nc2ccc([As]3SCC(CO)S3)cc2)n1 (stereo not shown) [Melarsoprol (3), melarsoprol] | – | death, share of cases ([3]; HAT patients): ~6%; treatment failure rate ([3]; in certain areas): ≤ 30% |
| CC1CS(=O)(=O)CCN1/N=C/c1ccc([N+](=O)[O-])o1 (stereo not shown) [Nifurtimox (5), Nifurtimox] | – | EC50 ([1]; read-out: T. brucei EC50, wild-type bloodstream form, 72 h): 2100 ± 200 nM; EC50 ([4]; Trypanosoma brucei, read-out: EC50, nifurtimox resistant cells): 20.9 ± 1.7 µM; fold increase in EC50 (less sensitive) versus wild-type cells ([4]; nifurtimox-resistant versus wild-type): 9–10 fold; treatment cessation due to adverse side effects, share of patients [5]: over 30% |
